Source: patent US20110009493A1 (priority 2008, published 2011)
Where two headings read alike, the source gives them in different places.

Legend:
Mycobacterium bovis = assay type: cell-based
Pseudomonas aeruginosa = experiment: Bacterial testing, ISO-GRID membrane filter system; assay type: cell-based; settings: 400 ppm hard water; for Kill of Pseudomonas aeruginosa (in words): 1 minute, 5% soil; for Results (percent kill) / Results Log10 Reduction: 1 minute contact, 5% organic soil, bacteria 6.81 log10 (CFU/g)
Experimental: • Bacteria (gram negative): Pseudomonas aeruginosa • Pathogenesis: Opportunistic pathogen in humans, cause of 1 in 10 nosocomial infections^1, causes wound, blood, burn, urinary tract, lung and ear infections. ^1http://textbookofbacteriology.net/pseudomonas.html • Concentration of Bacteria: 6.81 log10 (CFU/g) • Solution Contact Time: 1 minute • Dilution media: hard water (400 ppm) • Bio burden: 5% organic soil
The tests were performed using the ISO-GRID™ membrane filter system (Neogen Corp., Lansing, Mich., USA) according to a slightly modified procedure described in the ISO-GRID™ Methods Manual (3rd Ed.; QA Life Sciences, Inc., San Diego, Calif., USA; 1999).

[1] = ten minutes contact, 5% fetal bovine serum, 5.8*10^5 CFU/carrier
[2] = ten minutes contact, 5% fetal bovine serum

| Compound | Kill of Pseudomonas aeruginosa (in words) (Pseudomonas aeruginosa) | Kill of Mycobacterium bovis (in words) (Mycobacterium bovis; [2]) | Results (percent kill) (Pseudomonas aeruginosa) [%] | Results Log10 Reduction (Pseudomonas aeruginosa) [Log10] | further results |
| --- | --- | --- | --- | --- | --- |
| O=Cc1ccccc1C=O [2., Orthophthalaldehyde] | – | – | – | – | Pass/Fail (Intermediate 30 day read) (Mycobacterium bovis; [1]): Fail; Results (Intermediate 30 day read) (Mycobacterium bovis; [1]): 1/10 |
| O=Cc1ccccc1C=O [OPA, orthophthalaldehyde] | Neither OPA nor DDABC alone were sufficient to kill all | neither OPA, nor DDABC alone was sufficient to provide complete kill | – | – | – |
| O=Cc1ccccc1C=O [compound 4, Orthophthalaldehyde] | – | – | 40.2 | 2.74 | – |
| Didecyldimethylammonium bicarbonate/carbonate [compound 3] | – | – | 87.4 | 5.95 | – |
| didecyldimethylammomum bicarbonate/carbonate [1.] | – | – | – | – | Pass/Fail (Intermediate 30 day read) (Mycobacterium bovis): Fail; Results (Intermediate 30 day read) (Mycobacterium bovis): 1/10 |
| didecyldimethylammonium bicarbonate/carbonate [DDABC] | Neither OPA nor DDABC alone were sufficient to kill all | neither OPA, nor DDABC alone was sufficient to provide complete kill | – | – | – |
